Test results: patent US6660757B2, “Use of riluzole in the treating acoustic traumas” (Aventis Pharmaceuticals Inc., priority 1998, dated 2003)

Columns and labels:
[1] = system: compound action potential (CAP) of the auditory nerve; assay: acute perifusion of the cochleae: effect of increasing doses on cochlear potentials (CAP); type: in vivo, guinea pigs
Excerpt: The effect of riluzole in increasing doses was studied according to the technique of acute perifusion of the cochleae:
10 tricolor guinea pigs weighing 200 to 400 g are anesthetized by intraperitoneal injection of urethane (1.4 g/kg) and then trachetomized and artificially ventilated. The external auditory canals are incised for the putting in place of ear bars in a restraining apparatus. During the entire duration of the experiment, the electrocardiogram is monitored and the central temperature regulated by means of a heating cover at 38.5±1° C. The experiments are carried out in a soundproofed, anechoic and faradized chamber. Access to the cochlea is obtained via a ventral approach. After opening of the tympanic bulla, 3 holes 0.2 mm in diameter are manually cut in the basal turn of the cochlea: the first in the tympanic ramp to receive an infusion pipette, the second in the vestibular ramp to allow the outflow of the infused solutions out of the cochlea and the third also in the vestibular ramp to receive a recording electrode.
The cochlear potentials recorded in the vestibular ramp are stored and then numerically filtered to dissociate the compound action potential (CAP), a control for the activity of the auditory nerve and the receptor potentials obtained from the ciliated cells, namely the microphonic potential (MP) and the summation potential (SP). A low-pass filter of 2.5 kHz is used to extract the CAP whose amplitude is measured between N1 (1st negative wave) and P1 (1st positive wave) as well as the SP measured between 0 and 5 ms. A band-pass filter around 8 kHz (acoustic stimulation frequency) is used to extract the MP (6-10 kHz, filter slope: 48 db/octave).
After introducing the pipette (about 0.1 mm in diameter at the tip) into the tympanic ramp with the aid of a micromanipulator, leaktightness being provided by means of a glue ball placed near the tip, artificial perilymph is infused at the rate of 2.5 μl/min. A second infusion of artificial perilymph containing 0.1% dimethyl sulfoxide is carried out. […] These cochlear potentials are recorded immediately after each infusion. The duration of the infusions is 10 minutes.
The IC50 is observed for a dose of 300 μM (FIG. 2). In all the animals, a complete disappearance of the CAP is obtained for a dose of 500 μM.

acoustic trauma = assay: protective effect on acoustic trauma (sound overstimulation 6 kHz, 130 dB SPL, 15 minutes); type: in vivo, guinea pigs; details: 500 μM in perilymph
Protocol: The protective effect on acoustic trauma was tested on 10 animals for which a preliminary infusion of artificial perilymph is carried out for 10 minutes. After evaluation of the audiometric thresholds, a second 35 minute infusion either of artificial perilymph alone (5 animals: control group) or of perilymph containing 500 μM riluzole (5 animals) is carried out. Ten minutes after the start of the second infusion, a sound overstimulation (6 kHz, 130 dB SPL) is applied for 15 minutes. Finally, a third infusion of artificial perilymph allows rinsing of the cochlea. The audiometric thresholds are then recorded. The auditory loss for each frequency induced by sound exposure is defined as the difference between the audiometric thresholds recorded before and after the sound over-exposure.

[2] = cumulative increasing doses 50 to 500 μM, intracochlear infusion

IC50 ([1]; Cavia porcellus, 10 min, intracochlear infusion of cumulative increasing doses 50 to 500 μM in artificial perilymph with 0.1% dimethyl sulfoxide, 10 minutes each, read-out: IC50 for reduction of the amplitude of the compound action potential (CAP)): 300 µM
SMILES: Nc1nc2ccc(OC(F)(F)F)cc2s1 [riluzole, 2-amino-6-trifluoromethoxy-benzothiazole]
effect on CAP of the auditory nerve [1, 2]: reduction in the compound action potential (CAP) of the auditory nerve dependant on the dose
effect on latency N1 of the CAP [1, 2]: increase in the latency N1
dose for complete disappearance of the CAP ([1]; intracochlear infusion, in all the animals): 500 µM
auditory losses after sound overstimulation versus control group (acoustic trauma; 35 minute infusion, frequencies of between 8 and 16 kHz): control group exhibits, for frequencies of between 8 and 16 kHz, much higher auditory losses
histological study of the cochleae by electron microscopy: innervation (acoustic trauma; after sound overstimulation): virtually normal innervation
